In patent publication US9868748B2, “Thiazolopyrrolidine inhibitors of ROR- γ” (Vitae Pharmaceuticals, Inc., priority 2013, dated 2018):
pKi: −log10 of the molar value.

What follows are compounds tested against recombinant RORγ Ligand Binding Domain (LBD) protein (Homo sapiens (Human), UniProt P51449) (assay: Radio-Ligand RORγ Binding Assay (Assay 1)). Conditions: competition with 25-hydroxy [26,27-3H]-cholesterol, SPA; Table 9; read-out: RORγ Binding Ki Range*.
Experimental: Radio-Ligand RORγ Binding Assay (Assay 1)
Compounds of the present invention were tested for ability to bind to RORγ in a cell-free competition assay with commercially available radio-ligand (RL), 25-hydroxy [26,27-^3H]— cholesterol (PerkinElmer, Cat. # NET674250UC), for a ligand binding site on a recombinant RORγ Ligand Binding Domain (LBD) protein expressed as a 6×His-Glutathione-S-Transferase (GST) fusion (“6×His” disclosed as SEQ ID NO: 2). The assay was performed in 96-well SPA plates (PerkinElmer, Cat. #1450-401) in 50 mM HEPES buffer, pH 7.4, containing 150 mM NaCl, 5 mM MgCl2, 10% (v/v) glycerol, 2 mM CHAPS, 0.5 mM β-octylglucopyranoside and 5 mM DTT. Tested compounds were dissolved in DMSO, and semi-log (3.162×) serial dilutions of the compounds were prepared in the same solvent. Two μL of the DMSO solutions were mixed with 28 μL of 8.6 nM 25-hydroxy [26,27-^3H]— cholesterol and 50 μL of 24 nM RORγ LBD. The plate was shaken at 700 rpm for 20 min and incubated for 10 min at rt, after which 40 μL of poly-Lys YSi SPA beads (PerkinElmer, Cat. # RPNQ0010) were added to achieve 50 μg of the beads per well. The plate was incubated on an orbital shaker for 20 min and then for 10 min without agitation at rt. SPA signal for tritium beta radiation was registered on PerkinElmer Microbeta plate reader. Percent inhibition values were calculated based on the high signal obtained with DMSO control and the low signal observed with 10 μM standard RORγ inverse agonist T0901317 (SigmaAldrich, Cat. # T2320). The percent inhibition vs. concentration data were fit into a four-parameter model, and […] values were calculated from the fit as the concentrations corresponding to the inflection points on the dose-response curves. Inhibitory constants (Ki) were calculated using the following equation, where [RL] is the concentration in the assay and KD is a dissociation constant of 25-hydroxy [26,27-^3H]-cholesterol: […]

Chain of recombinant RORγ Ligand Binding Domain (LBD) protein (P51449 269-508): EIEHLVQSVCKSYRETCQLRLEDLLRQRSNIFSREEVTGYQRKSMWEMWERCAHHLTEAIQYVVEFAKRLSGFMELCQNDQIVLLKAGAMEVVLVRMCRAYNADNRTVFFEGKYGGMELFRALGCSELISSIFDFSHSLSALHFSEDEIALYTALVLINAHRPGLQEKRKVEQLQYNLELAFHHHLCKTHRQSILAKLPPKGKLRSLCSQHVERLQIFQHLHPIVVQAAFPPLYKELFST

| SMILES | pKi |
| --- | --- |
| CCS(=O)(=O)c1ccc(CC(=O)Nc2nc3c(s2)CN(CC2CCC(F)(F)CC2)[C@H]3C(C)C)cc1 | > 7.00 |
| CC(C)[C@H]1c2nc(NC(=O)Cc3ccn4ccnc4c3)sc2CN1Cc1ccc(C(F)(F)F)cc1 | 6.00 to 7.00 |
| CCS(=O)(=O)c1ccc(CC(=O)Nc2nc3c(s2)CN(CC2CCNC(=O)C2)[C@H]3C(C)C)cc1 (stereo partly shown) | 6.00 to 7.00 |
| CCS(=O)(=O)c1ccc(CNC(=O)c2nc3c(s2)CN(Cc2ccn(C(F)F)c(=O)c2)[C@H]3C(C)C)cc1 | 6.00 to 7.00 |
| CC(C)[C@H]1c2nc(NC(=O)Cc3ccc(S(C)(=O)=O)cc3)sc2CN1Cc1ccn(C2CC2)c(=O)c1 | 6.00 to 7.00 |
| CCS(=O)(=O)c1ccc(CC(=O)Nc2nc3c(s2)CN(C[C@H]2CC[C@H](C(=O)O)CC2)[C@H]3C(C)C)cc1 | 6.00 to 7.00 |
| Cc1ccc(CN2Cc3sc(NC(=O)Cc4ccc(S(C)(=O)=O)cc4)nc3[C@@H]2C(C)C)nn1 | 6.00 to 7.00 |
| CCS(=O)(=O)c1ccc(CC(=O)Nc2nc3c(s2)CN(c2ncc(CO)c(C(F)(F)F)n2)[C@H]3C(C)C)cc1 | 6.00 to 7.00 |
| CCS(=O)(=O)c1ccc(CC(=O)Nc2nc3c(s2)CN(Cc2cc[n+]([O-])cc2)[C@H]3C(C)C)cc1 | 6.00 to 7.00 |
| COc1cc(CN2Cc3sc(NC(=O)Cc4ccc(C#N)cc4)nc3[C@@H]2C(C)C)ccc1C#N | > 7.00 |
| CC(C)[C@H]1c2nc(NC(=O)Cc3ccc(S(C)(=O)=O)cc3F)sc2CN1Cc1cnc(C(F)(F)F)nc1 | 6.00 to 7.00 |
| CCS(=O)(=O)c1cnc(CC(=O)Nc2nc3c(s2)CN(Cc2ccc(C#N)cc2)[C@@H]3C(C)C)nc1 | < 6.00 |
| CC[C@H]1c2nc(NC(=O)Cc3ccc(C(=O)OC)cc3)sc2CN1Cc1ccc(Cl)cc1 | 6.00 to 7.00 |
| CC(C)[C@H]1c2nc(C(=O)NCc3ccc(S(C)(=O)=O)cc3)sc2CN1Cc1ccn(C)c(=O)c1 | < 6.00 |
| CC(C)[C@H]1c2nc(NC(=O)CC3CCS(=O)(=O)CC3)sc2CN1Cc1ccc(Cl)cc1 | 6.00 to 7.00 |
| CCS(=O)(=O)c1ccc(CNC(=O)c2nc3c(s2)CN(CC2CNCCO2)[C@H]3C(C)C)cc1 (stereo partly shown) | < 6.00 |
| CC(C)[C@H]1c2nc(C(=O)NCc3ccc(S(C)(=O)=O)cc3)sc2CN1Cc1ccc2nn[nH]c2c1 | 6.00 to 7.00 |
| Cc1ncc(CN2Cc3sc(NC(=O)Cc4ccc(S(C)(=O)=O)cc4)nc3[C@@H]2C(C)C)cn1 | 6.00 to 7.00 |
| CC(C)[C@H]1c2nc(C(=O)NCc3ccc(S(C)(=O)=O)cc3)sc2CN1Cc1ncc(Cl)cn1 | 6.00 to 7.00 |
| CCOC(=O)c1cnc(N2Cc3sc(NC(=O)Cc4ccc(S(=O)(=O)CC)cc4)nc3C2(C)C)nc1C(F)(F)F | 6.00 to 7.00 |
| CC(C)[C@H]1c2nc(C(=O)NCc3ccc(S(C)(=O)=O)cc3)sc2CN1Cc1cnc(C(F)(F)F)nc1 | 6.00 to 7.00 |
| CC1(C)c2nc(NC(=O)Cc3ccc(S(C)(=O)=O)cc3)sc2CN1c1ncc(C(F)(F)F)cn1 | 6.00 to 7.00 |

| SMILES | pKi |
| --- | --- |
| CCS(=O)(=O)c1ccc(CNC(=O)c2nc3c(s2)CN(c2ncc(CO)c(C(F)(F)F)n2)[C@H]3C(C)C)cc1 | < 6.00 |
| CCOC(=O)c1cnc(N2Cc3sc(C(=O)NCc4ccc(S(=O)(=O)CC)cc4)nc3[C@@H]2C(C)C)nc1C(F)(F)F | < 6.00 |
| CCOC(=O)c1cnc(N2Cc3sc(NC(=O)Cc4ccc(S(C)(=O)=O)cc4)nc3[C@@H]2C(C)C)nc1C(F)(F)F | 6.00 to 7.00 |
| CC(C)[C@H]1c2nc(NC(=O)Cc3ccc(S(C)(=O)=O)cc3)sc2CN1c1nc(Cl)ncc1C#N | 6.00 to 7.00 |
| COC(=O)c1cnc(N2Cc3sc(NC(=O)Cc4ccc(S(C)(=O)=O)cc4)nc3[C@@H]2C(C)C)nc1 | < 6.00 |
| CC(C)[C@H]1c2nc(NC(=O)Cc3ccc(F)cc3F)sc2CN1Cc1ccc(Cl)cc1 | 6.00 to 7.00 |
| CC[C@@H]1c2nc(NC(=O)Cc3ccc(S(C)(=O)=O)cc3)sc2CN1Cc1ccc(OC(F)(F)F)nc1 | 6.00 to 7.00 |
| CC[C@@H]1c2nc(NC(=O)Cc3ccc(S(=O)(=O)CC)cc3)sc2CN1Cc1ccc(F)cn1 | 6.00 to 7.00 |
| CC[C@@H]1c2nc(NC(=O)Cc3ccc(S(C)(=O)=O)cc3)sc2CN1Cc1ccc(OC(F)(F)F)cc1F | 6.00 to 7.00 |
| CC(C)[C@@H]1c2nc(NC(=O)Cc3ccc(S(C)(=O)=O)cc3)sc2CN1Cc1ccc(Br)cc1 | 6.00 to 7.00 |
| CCS(=O)(=O)c1ccc(CC(=O)Nc2nc3c(s2)CN(Cc2nccc(C(F)(F)F)n2)[C@@H]3C(C)C)cc1 | 6.00 to 7.00 |
| COC(=O)c1coc(CN2Cc3sc(NC(=O)Cc4ccc(S(C)(=O)=O)cc4)nc3[C@H]2C(C)C)n1 | < 6.00 |
| CC(C)[C@@H]1c2nc(NC(=O)Cc3ccc(S(C)(=O)=O)cc3)sc2CN1C(C)c1ccc(C#N)cc1 (stereo partly shown) | 6.00 to 7.00 |
| CCS(=O)(=O)c1ccc(CC(=O)Nc2nc3c(s2)CN(C(=O)Cc2ccccc2)[C@@H]3C(C)C)cc1 | 6.00 to 7.00 |
| CCS(=O)(=O)c1ccc(CC(=O)Nc2nc3c(s2)CN(Cc2ccc(C(F)(F)F)nc2)[C@@H]3C(C)C)cc1 | 6.00 to 7.00 |
| Cc1cc(C(F)(F)F)nc(N2Cc3sc(-c4ccc(C(F)(F)F)nc4)nc3[C@H]2C(C)C)n1 | < 6.00 |
| Cc1cc(C(F)(F)F)nc(N2Cc3sc(Cc4ccc(-c5nn[nH]n5)cc4C)nc3[C@H]2C(C)C)n1 | 6.00 to 7.00 |
| Cc1cc(C(F)(F)F)nc(N2Cc3sc(Cc4ccc(C#N)cc4C)nc3[C@H]2C(C)C)n1 | < 6.00 |
| CCS(=O)(=O)c1ccc(CC(=O)Nc2nc3c(s2)CN(C[C@H]2C[C@H](C(N)=O)C2)[C@H]3C(C)C)cc1 (relative stereo) | 6.00 to 7.00 |
| CCS(=O)(=O)c1ccc(CC(=O)Nc2nc3c(s2)CN(C[C@@H]2CC[C@@H](C(F)(F)F)NC2)[C@H]3C(C)C)nc1 (single isomer, unassigned) | 6.00 to 7.00 |
| CCS(=O)(=O)c1ccc(CC(=O)Nc2nc3c(s2)CN([C@@H](C)Cc2ccc(F)cc2)[C@@H]3C(C)C)cc1 (single isomer, unassigned) | 6.00 to 7.00 |
| CC(C)[C@@H]1c2nc(NC(=O)Cc3ccc(S(C)(=O)=O)cc3)sc2CN1[C@@H](C)c1ccc(C(F)(F)F)cc1 (single isomer, unassigned) | 6.00 to 7.00 |

More lines, now with the values ahead:

| pKi | SMILES |
| --- | --- |
| 6.00 to 7.00 | Cc1nnc(-c2ccc(CC(=O)Nc3nc4c(s3)CN(Cc3ccc(Cl)cc3)[C@H]4C(C)C)cc2)o1 |
| < 6.00 | CCS(=O)(=O)c1ccc(CC(=O)Nc2nc3c(s2)CN(c2ncc(-c4ccc(=O)n(C)c4)cn2)[C@H]3C(C)C)cc1 |
| < 6.00 | CCS(=O)(=O)c1ccc(CC(=O)Nc2nc3c(s2)CN(c2ncc(-c4ccc(=O)n(C)c4)s2)[C@H]3C(C)C)nc1 |
| 6.00 to 7.00 | CCS(=O)(=O)c1ccc(CNC(=O)c2nc3c(s2)CN(Cc2ccc(-c4nnn[nH]4)cc2)[C@H]3C(C)C)cc1 |
| 6.00 to 7.00 | CCS(=O)(=O)c1ccc(CC(=O)Nc2nc3c(s2)CN(Cc2ccc(C(F)(F)F)cc2)[C@@]3(C)C(C)C)cc1 |
| < 6.00 | CC(C)[C@H]1c2nc(NC(=O)Cc3ccc(S(C)(=O)=O)cc3)sc2CN1Cc1ccc(=O)n(C(F)F)n1 |
| < 6.00 | CCS(=O)(=O)c1cnc(CC(=O)Nc2nc3c(s2)CN(Cc2ccc(C(F)(F)F)cc2)[C@@H]3C(C)C)nc1 |
| 6.00 to 7.00 | CCS(=O)(=O)c1ccc(CC(=O)Nc2nc3c(s2)CN(Cc2cnc(N)nc2)[C@H]3C(C)C)cc1 |
| < 6.00 | CCS(=O)(=O)c1ccc(CC(=O)Nc2nc3c(s2)CN(Cc2ccc(S(C)(=O)=O)cc2)C3(C)C)cc1 |
| < 6.00 | CCS(=O)(=O)c1ccc(CNC(=O)c2nc3c(s2)CN(c2ncc(C(F)(F)F)cn2)[C@H]3C(C)C)cc1 |
| 6.00 to 7.00 | CCS(=O)(=O)c1ccc(CNC(=O)c2nc3c(s2)CN(c2nccc(C(F)(F)F)n2)[C@H]3C(C)C)cc1 |
| 6.00 to 7.00 | CCS(=O)(=O)c1ccc(CC(=O)Nc2nc3c(s2)CN(c2ncc(C(F)(F)F)cn2)C3(C)C)cc1 |
| 6.00 to 7.00 | CC(C)[C@H]1c2nc(NC(=O)Cc3ccc(S(C)(=O)=O)cc3)sc2CN1Cc1ncc(Cl)cn1 |
| 6.00 to 7.00 | CC(C)[C@H]1c2nc(C(=O)NCc3ccc(S(C)(=O)=O)cc3)sc2CN1Cc1ccc(C#N)cn1 |
| 6.00 to 7.00 | CC(C)[C@H]1c2nc(NC(=O)Cc3ccc(S(C)(=O)=O)cc3)sc2CN1Cc1ncc(Cl)cc1F |
| 6.00 to 7.00 | CC(C)[C@H]1c2nc(NC(=O)Cc3ccc(S(C)(=O)=O)cc3)sc2CN1c1ncc(C#N)c(Cl)n1 |
| 6.00 to 7.00 | CCS(=O)(=O)c1ccc(CC(=O)Nc2nc3c(s2)CN([C@@H](C)Cc2ccccc2)[C@@H]3C(C)C)cc1 |
| 6.00 to 7.00 | CCS(=O)(=O)c1ccc(CC(=O)Nc2nc3c(s2)CN(Cc2ccc(C#N)cn2)[C@@H]3C(C)C)cc1 |
| 6.00 to 7.00 | Cc1ccc(CN2Cc3sc(NC(=O)Cc4ccc(S(C)(=O)=O)cc4)nc3[C@H]2C(C)C)cc1 |
| 6.00 to 7.00 | CC(C)[C@@H]1c2nc(NC(=O)Cc3ccc(S(C)(=O)=O)cc3)sc2CN1Cc1ccc(C#N)cc1 |
| 6.00 to 7.00 | CCS(=O)(=O)c1ccc(CC(=O)Nc2nc3c(s2)CN(CC2CCOCC2)[C@@H]3C(C)C)cc1 |
| 6.00 to 7.00 | CCS(=O)(=O)c1ccc(CC(=O)Nc2nc3c(s2)CN(Cc2ccc(S(C)(=O)=O)cc2)[C@@H]3C(C)C)cc1 |
| 6.00 to 7.00 | CC[C@@H]1c2nc(NC(=O)Cc3ccc(S(C)(=O)=O)cc3)sc2CN1[C@@H](C)c1ccc(OC(F)(F)F)cc1 (single isomer, unassigned) |
